These results are taken from ChEMBL document CHEMBL1268958, “Synthesis and antihyperlipidemic activity of novel coumarin bisindole derivatives” (2010).

Common to all, as to format: functional, Mesocricetus auratus
The subject of assay [1] is Syrian golden hamster. Briefly: Antihyperlipidemic activity against high fat diet fed gloden syrian hamster assessed as change in triglyceride level at 10 mg/kg, po for 7 days.
Assay [2] has as its system Syrian golden hamster. Briefly: Antihyperlipidemic activity against high fat diet fed gloden syrian hamster assessed as change in total cholesterol level at 10 mg/kg, po for 7 days.
Assay [3] has as its system Syrian golden hamster. Briefly: Antihyperlipidemic activity against high fat diet fed gloden syrian hamster assessed as change in HDL to total cholesterol ratio at 10 mg/kg, po for 7 days.
The subject of assay [4] is Syrian golden hamster. Briefly: Antihyperlipidemic activity against high fat diet fed gloden syrian hamster assessed as change in HDL level at 10 mg/kg, po for 7 days.
Assay [5] deals with Syrian golden hamster. Description: Antihyperlipidemic activity against high fat diet fed gloden syrian hamster assessed as change in HDL to total cholesterol ratio at 25 mg/kg, po for 7 days.
The test system of assay [6] is Syrian golden hamster. Briefly: Antihyperlipidemic activity against high fat diet fed gloden syrian hamster assessed as change in HDL level at 25 mg/kg, po for 7 days.
The test system of assay [7] is Syrian golden hamster. Briefly: Antihyperlipidemic activity against high fat diet fed gloden syrian hamster assessed as change in triglyceride level at 25 mg/kg, po for 7 days.
Assay [8] concerns Syrian golden hamster. Briefly: Antihyperlipidemic activity against high fat diet fed gloden syrian hamster assessed as change in total cholesterol level at 25 mg/kg, po for 7 days.

`COC(=O)c1cc2cc(C(c3c(C)n(C)c4ccccc34)c3c(C)n(C)c4ccccc34)c3ccccc3c2oc1=O`: the Activity in assay [1] is given as -29%; in assay [2], -4%; in assay [3], 2%; in assay [4] it was -3%.
Taken in the same sequence, the figures for `CCOC(=O)c1cc2cc(C(c3cn(C)c4ccccc34)c3cn(C)c4ccccc34)c3ccccc3c2oc1=O` were -33%, 3%, 18% and 22%.
As for `CCOC(=O)c1cc2cc(C(c3c(C)[nH]c4ccccc34)c3c(C)[nH]c4ccccc34)c3ccccc3c2oc1=O`, the Activity in assay [1] is given as -35%; in assay [2], -7%; in assay [3], 24%; in assay [4], 14%.
`CCOC(=O)c1cc2cc(C(c3c(C)n(C)c4ccccc34)c3c(C)n(C)c4ccccc34)c3ccccc3c2oc1=O`: the Activity was -45% in assay [1], -38% in assay [2], 11% in assay [3] and -31% in assay [4].
For `CCOC(=O)c1cc2cc(C(c3c(C)n(C)c4ccccc34)c3c(C)n(C)c4ccccc34)cc(C(C)CC)c2oc1=O` (stereo unspecified), the Activity in assay [1] is -57%; in assay [2], -43%; in assay [3], 39%; in assay [4] it was -20%.
For `COC(=O)c1cc2cc(C(c3c[nH]c4ccccc34)c3c[nH]c4ccccc34)c3ccccc3c2oc1=O`, the Activity in assay [1] is given as -50%; in assay [2], -12%; in assay [3], 30%; in assay [4], 13%.
Take `COC(=O)c1cc2cc(C(c3cn(C)c4ccccc34)c3cn(C)c4ccccc34)c3ccccc3c2oc1=O`: the Activity is on record as -35% in assay [1], 6% in assay [2], 12% in assay [3] and -17% in assay [4].
For `COC(=O)c1cc2cc(C(c3c(C)[nH]c4ccccc34)c3c(C)[nH]c4ccccc34)c3ccccc3c2oc1=O`, the Activity in assay [1] is recorded as -33%; in assay [2] it was -17%; in assay [3] it was 24%; in assay [4], 1%.
On to `CCOC(=O)c1cc2cc(C(c3c[nH]c4ccccc34)c3c[nH]c4ccccc34)c3ccccc3c2oc1=O`, for which the Activity in assay [1] was -55%; in assay [2] it was -20%; in assay [3] it was 42%; in assay [4] it was 14%.
The matching figures for `CCOC(=O)c1cc2cc(C(c3c[nH]c4ccccc34)c3c[nH]c4ccccc34)cc(C(C)CC)c2oc1=O` (stereo unspecified): -10%, 28%, -14% and 11%.
On to `CCOC(=O)c1cc2cc(C(c3cn(C)c4ccccc34)c3cn(C)c4ccccc34)cc(C(C)CC)c2oc1=O` (stereo unspecified), for which the Activity in assay [1] is on record as -43%; in assay [2], -36%; in assay [3] it was 18%; in assay [4] it was -24%.
The matching figures for `CCOC(=O)c1cc2cc(C(c3c(C)[nH]c4ccccc34)c3c(C)[nH]c4ccccc34)cc(C(C)CC)c2oc1=O` (stereo unspecified): -39%, -21%, 9% and -13%.
Regarding `CC(C)c1c(C(=O)Nc2ccccc2)c(-c2ccccc2)c(-c2ccc(F)cc2)n1CC[C@@H](O)C[C@@H](O)CC(=O)O` [ATORVASTATIN], the Activity is given as -63% in assay [1], -14% in assay [2], 35% in assay [3] and 15% in assay [4].
Consider `CC[C@H](C)C(=O)O[C@H]1C[C@@H](C)C=C2C=C[C@H](C)[C@H](CC[C@@H]3C[C@@H](O)CC(=O)O3)[C@H]21` [LOVASTATIN], for which the Activity in assay [5] is 12%; in assay [6] it was 3%; in assay [7], -29%; in assay [8] it was -9%.
